In patent US8076375B2 (priority 2005, dated 2011):
Values joined by “and” are separate entries in the source; they are usually repeats but may differ in a detail not shown here. Equal entries are not always repeated. “Also recorded” adds a separate entry of the source. Where two headings read alike, the source gives them in different places.

Columns and labels:
[1] = tested on: ts2 and ts25 vaccinia virus mutants; format: cell-based
[2] = molecular target: vaccinia virus B1 kinase (GST-B1) (Vaccinia virus, UniProt P20505); experiment: biochemical; format: biochemical; settings: for remaining activity at 10 µM: read-out: Percent activity remaining at 10 μM, B1; for inhibition at 10 µM: read-out: Inhibition of GST-B1 (of the control value)
[3] = tested on: Lck (activated F505 form); format: biochemical; settings: for Effect on Lck activity (in words): 10 μM
wild-type vaccinia virus = experiment: microbe, parasite or virus in culture; format: cell-based; settings: for inhibition at 100 µM: Orthopoxvirus vaccinia, HeLa
[4] = mouse, in vivo, cited from earlier work
[5] = tested on: vesicular stomatitis virus (VSV); format: cell-based

| Compound | remaining activity at 10 µM [2] [%] | Percent Lck activity remaining [3] [%] | Effect on Lck activity (in words) [3] | Effect on virus growth in HeLa cell culture (in words) (wild-type vaccinia virus) | Effect on growth of wild-type vaccinia virus (in words) (wild-type vaccinia virus) | IC50 [2] [µM] | inhibition at 10 µM [2] [%] | Toxic effects in mammals [4] | also measured |
| --- | --- | --- | --- | --- | --- | --- | --- | --- | --- |
| 2-methylnaphthalene-bis(hexachlorocyclopentadiene) adduct [reference compound] | – | – | – | – | – | – | – | – | Effect on growth of ts2 and ts25 vaccinia virus, FIG. 1 (in words) [1]: did not inhibit; Effect on growth of ts2 or ts25 vaccinia virus (in words) [1]: no effect |
| O=S(=O)(O)c1ccc(NN(c2c(O)ccc3ccccc23)S(=O)(=O)O)cc1 [Compound 9600-Q, 4-[N′-(2-hydroxynaphthalen-1-yl)-N′-sulfo-hydrazino]benzenesulfonic acid] | 93 ± 2 | 53 ± 18 | minimally inhibited | no apparent effect | – | – | – | – | Effect on B1 kinase activity in vitro (in words) [2]: inhibiting B1 almost not at all |
| O=C(O)C=Cc1ccc[c]([Sb](=[O])([OH])[OH])c1 [Compound 13778-J, 3-(3-stibonophenyl)prop-2-enoic acid] | – | 79 ± 9 | – | – | inhibited the growth | – | – | – | Effect on B1 kinase activity in vitro (in words) [2]: inhibiting B1 almost not at all; also recorded: stimulated B1 in vitro |
| Nc1nc(N)c(/N=N/c2ccc(C(=O)O)c(O)c2)c(N)n1 [Compound 117285-R, 2-hydroxy-4-(2,4,6-triaminopyrimidin-5-yl)diazenyl-benzoic acid] | 4 ± 2 | 76 ± 25 | – | no apparent effect | – | 1 | ≥ 87 | – | – |
| O=C(O)C1CCCCC1c1c2ccc(=O)c(O)c-2oc2c(O)c(O)ccc12 (stereo not drawn) [Compound 119910-U, 2-(4,5,6-trihydroxy-3-oxo-xanthen-9-yl)cyclohexane-1-carboxylic acid] | 0 | 59 | minimally inhibited | no apparent effect | – | 3.5 | ≥ 87 | no toxic effects were observed | – |
| O=C(O)C=Cc1c2ccc(=O)c(O)c-2oc2c(O)c(O)ccc12 [Compound 119911-V, 3-(4,5,6-trihydroxy-3-oxo-xanthen-9-yl)prop-2-enoic acid] | 0 | 70 | – | no apparent effect | – | 3 | ≥ 87 | no toxic effects were observed | – |
| CC1C2C=CC1C(c1c3ccc(=O)c(O)c-3oc3c(O)c(O)ccc13)C2C(=O)O (stereo not drawn) [Compound 119913-X, 7-methyl-6-(4,5,6,-trihydroxy-3-oxo-xanthen-9-yl)-bicyclo[2.2.1]hetp-2-ene-5-carboxylic acid] | 1 | 56 | minimally inhibited | – | inhibited the growth | 2.5 | ≥ 87 | no toxic effects were observed | Effect on growth of ts2 and ts25 mutant viruses (in words) [1]: reproducibly inhibited the growth |
| O=C(O)CCc1c2ccc(=O)c(O)c-2oc2c(O)c(O)ccc12 [Compound 119915-Z, 3-(4,5,6-trihydroxy-3-oxo-xanthen-9-yl)propanoic acid] | 1 | 78 | – | no apparent effect | – | 3 | ≥ 87 | no toxic effects were observed | – |
| O=C(O)c1cccc(/N=N/c2c(S(=O)(=O)O)ccc3c2C(=O)c2ccccc2C3=O)c1O [Compound 125908-P, 3-(9,10-dioxo-2-sulfo-anthracen-1-yl)diazenyl-2-hydroxy-benzoic acid] | 23 | 53 | minimally inhibited | no apparent effect | – | – | – | – | – |
| O=C1c2ccccc2C(=O)c2c(NC3CCCCC3)ccc(Nc3ccc(S(=O)(=O)O)cc3)c21 [Compound 128437-O, 4-(4-cyclohexylamino-9,10-dioxo-anthracen-1-yl)aminobenzenesulfonic acid] | 47 | 88 | – | – | inhibited the growth | – | – | – | – |
| CCc1c(O)c2c(c(O)c1C(C)=O)C(=O)c1c(cc(O)c(C(=O)O)c1C(=O)O)C2=O [Compound 170008-Y, 2-acetyl-7,8-bis(dihydroxymethylidene)-3-ethyl-9-hydroxy-anthracene-1,4,6,10-tetrone] | 12 | 81 | – | no apparent effect | – | 2.5 | ≥ 87 | – | – |
| O=C(O)c1cc2c(cc1S(=O)(=O)O)C1C(C3C2C2(Cl)C(Cl)=C(Cl)C3(Cl)C2(Cl)Cl)C2(Cl)C(Cl)=C(Cl)C1(Cl)C2(Cl)Cl (stereo not drawn) [Compound 270718-R, 3-sulfo-2-naphthoic acid-bis(hexachlorocyclopentadiene) adduct] | 12 ± 14 | 86 ± 46 | – | – | inhibited the growth | 2.5 | ≥ 87 | no toxic effects were observed | Effect on growth of ts2 and ts25 mutant viruses (in words) [1]: reproducibly inhibited the growth; Effect on growth of ts2 and ts25 vaccinia virus, FIG. 1 (in words) [1]: inhibited the growth; Inhibition of growth of ts2 and ts25, single experiment (FIG. 1) ([1]; 100 µM): 99%; Inhibition of growth of vaccinia virus over 24 hours ([1]; 100 µM): 86-99%; Activity under reduced-serum conditions relative to 10% serum (wild-type vaccinia virus): approximately four-fold; Effect on growth of wild-type vaccinia virus, FIG. 1 (in words) (wild-type vaccinia virus): inhibited the growth; Inhibition of growth of wild-type vaccinia virus (wild-type vaccinia virus): 90% and 99%; inhibition at 100 µM (wild-type vaccinia virus; read-out: Inhibition of growth of wild-type vaccinia virus, example of FIG. 1): 93%; inhibition at 100 µM (wild-type vaccinia virus; read-out: Inhibition of wild-type vaccinia virus): 84%; Effect on growth of VSV (in words) [5]: essentially no effect; Effect on growth of VSV, FIG. 1 (in words) [5]: not the growth of VSV; Inhibition of growth of VSV (in words) [5]: slight; Effect on growth of human Ramos B cells (human Ramos B cells): no effect; Toxicity in mice ([4]; 200 mg/kg): No toxicity |
| CN[C@@H]1C[C@H]2O[C@@](C)([C@@H]1OC)n1c3ccccc3c3c4c(c5c6ccccc6n2c5c31)C(=O)NC4 [staurosporine, reference compound] | – | – | – | – | – | – | – | – | Effect on B1 kinase activity in vitro (in words) [2]: inhibited B1 or F10 kinase |
